The structures appear in SMILES notation.

One data set concerns E0771 tumors. Kind of data set: E0771 breast tumor model in syngeneic C57BL/6 J mice (tumor size, VEGFA ELISA, flow cytometry). The class given is in vivo. Conditions: 10 mg/kg i.p. once daily for 10 days. As for the experimental part: A 1:1 mixture of polyethylene glycol 400 (PEG400) (Merck, 8.17003.1000) and Cremophor EL (Sigma, C5135–500G) was used to dissolve I29 at a concentration of 10 mM and served as the vehicle control. Initially, I29 was suspended in PEG400, after which Cremophor EL was added to the solution. The mixture was then heated to 80 °C until the compound was fully dissolved. Both the compound and vehicle were diluted 1:10 in physiological saline immediately prior to administration to mice at a dose of 10 mg/kg.
E0771 cells (1 × 10^6) were injected subcutaneously into both flanks of 12 female C57BL/6 J mice. Once the primary tumors reached a volume of 100–200 mm^3 (palpable), the mice were randomized into two groups and treated with either I29 or vehicle (Cremophor and PEG400). I29 was administered intraperitoneally (i.p.) once daily for 10 consecutive days at a dose of 10 mg/kg. Twenty-four hours after the final injection, the mice were euthanized. Tumors were excised, weighed, and processed for flow cytometry analysis of immune cells and immune checkpoints, including PD-1 and PD-L1, as well as for VEGFA quantification by ELISA.
The procedure was described in detail in [29]. Briefly, primary subcutaneous tumors derived from E0771 cells were minced into small fragments and enzymatically digested with 0.5 mg/mL Collagenase IV (Sigma) and 40 μg/mL DNase I in RPMI 1640 medium for 30 min at 37°C. The resulting cells were resuspended in HBSS containing 0.5 % FBS and incubated at 4°C for 20 min with the following antibodies (BioLegend): CD45 BV650 (clone 104; 0.6/100), CD11b PerCP-Cy5.5 (clone M1/70; 0.3/100), Ly6C BV421 (clone HK1.4; 0.6/100), Ly6G AF700 (clone 1A8; 0.6/100), F4/80 PE-Cy7 (clone BM8; 0.3/100), PD-L1 APC (clone 10 F.9G2; 1/100), CD3 BV605 (clone 145–2C11; 0.6/100), CD4 AF700 (clone GK1.5; 0.6/100), CD8 BV785 (clone 53–6.7; 0.6/100), and PD1 (clone 29.F1A12; 0.6/100). Cell viability was determined using the LIVE/DEAD™ Fixable Near IR Viability Kit (Invitrogen, L34981). Samples were acquired using a Cytoflex LX flow cytometer with CytExpert software, and data were analyzed with Kaluza 2.0 software (Beckman Coulter).
Within the CD45 + leukocyte population, monocytic myeloid-derived suppressor cells (M) MDSCs (CD11b+Ly6G−Ly6Chi), polymorphonuclear granulocytic (PMN−) MDSCs (CD11b+Ly6G+Ly6Clo), and tumor-associated macrophages (TAMs; CD11b+Ly6Clo/−F4/80 +) were identified. Total T lymphocytes (CD3 +) were gated within CD45 + population, and frequencies of CD3 +CD4 + and CD3 +CD8 +T cells subsets were quantified. PD1 expression was evaluated on CD4 + and CD8 + T cells, while PD-L1 expression was assessed on MDSCs and TAMs. Expression levels are reported as geometric mean fluorescence intensity (gMFI).
For VEGFA measurements in E0771 tumors, tumors were weighed, and 50 mg of each was isolated and lysed in PBS containing protease inhibitors but no EDTA. Following homogenization, samples were frozen overnight and then subjected to repeated freeze-thaw cycles the next day. Insoluble debris was removed by high-speed centrifugation, and the supernatant was quantified using the BCA assay. A total of 190 μg of protein was then analyzed using a mouse VEGF Quantikine ELISA Kit (MMV00, R&D Systems).
In general terms: In an ELISA, binding on a coated surface is turned into a signal by an enzyme label.

The target in the next data set is T1, ERO1 in E0771 cells (Mus musculus, UniProt Q8R180).
T1 construct: endogenous in cells; host or cells: E0771
T1 sequence (Q8R180 24-464): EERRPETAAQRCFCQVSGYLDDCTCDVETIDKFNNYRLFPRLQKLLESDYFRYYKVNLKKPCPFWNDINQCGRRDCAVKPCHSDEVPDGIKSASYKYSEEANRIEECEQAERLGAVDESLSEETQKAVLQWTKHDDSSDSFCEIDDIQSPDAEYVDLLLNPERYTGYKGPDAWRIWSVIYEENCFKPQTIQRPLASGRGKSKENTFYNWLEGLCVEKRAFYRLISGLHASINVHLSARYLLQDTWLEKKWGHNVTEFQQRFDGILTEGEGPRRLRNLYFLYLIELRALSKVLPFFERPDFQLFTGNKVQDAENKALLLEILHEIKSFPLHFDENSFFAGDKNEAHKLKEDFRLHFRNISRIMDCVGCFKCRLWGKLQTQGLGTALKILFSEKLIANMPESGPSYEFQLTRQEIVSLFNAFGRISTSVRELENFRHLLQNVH
The data set is described as follows: ERO1 redox state by non-reducing immunoblot in E0771 cells. To be noted: E0771, Fig. 4F. The class given is cell-based, murine. On the procedure: MDAMB231 and E0771 cells were maintained in Dulbecco’s Modified Eagle’s Medium supplemented with 1 % fetal bovine serum and seeded at 70 % confluency in six-well plates one day prior to the experiment. Cells were treated with DTT (10 mM) and/or ERO1A inhibitors for 1–5 h. At the time of collection, phosphate-buffered saline containing 10 mM NEM was added, and cells were incubated on ice for 10 min in lysis buffer (50 mM Tris-HCl, pH 7.4; 150 mM NaCl; 1 % Triton X-100; 0.1 % SDS; 1 % sodium deoxycholate; protease inhibitors; and 10 mM NEM). Protein concentrations were determined using the BCA assay, and equal amounts of protein were separated by non-reducing SDS-PAGE followed by immunoblotting with a polyclonal antibody against ERO1A [33].
(In general: Immunoblotting shows a protein as a band on a membrane.)

Details of data set [1]: method as in PMID 37132383. Conditions: cited from earlier work.

`O=C1/C(=C/c2ccc(-c3ccccc3)o2)C(C(F)(F)F)=NN1c1ccccc1F` [I29]: the tolerability result with E0771 tumors (E0771 tumor-bearing mice) is on record as “well tolerated, with no overt signs of toxicity or weight loss observed”. Besides, in the data set with E0771 tumors (flow cytometry of tumors), the “PD-1 expression on CD4+ and CD8+ T cells” value is reported as “remained unchanged”; the “PD-L1 expression in monocytic myeloid-derived suppressor cells (M-MDSCs)” value is “statistically significant reduction”. In the data set on E0771 tumors (vs vehicle), the “VEGFA levels in tumors (ELISA)” value was “reduced”, the tumor volume result is “no significant differences” and the “tumor weight (ex vivo)” value was “slight reduction in tumor weight”. Further, the “ERO1 redox assay compared with EN460” value on ERO1 in E0771 cells is recorded as “superior efficacy of I29 over EN460”.

On to `O=C(O)c1cc(N2N=C(C(F)(F)F)/C(=C\c3ccc(-c4ccccc4)o3)C2=O)ccc1Cl` [EN460, reference compound], for which the aqueous solubility entry in data set [1] was “poor aqueous solubility”.

The record behind these values is paper PMC13198932, “Pyrazolone-based ERO1 inhibitors in ERO1-driven triple-negative breast cancer and SEPN1-related myopathy: Structure–activity relationship and therapeutic potential” (Pharmacological research, 2025).
